Laboratory results as given in ChEMBL document CHEMBL3603746, “Discovery of New H2S Releasing Phosphordithioates and 2,3-Dihydro-2-phenyl-2-sulfanylenebenzo[d][1,3,2]oxazaphospholes with Improved Antiproliferative Activity” (J Med Chem, 2015).
Calls of active or inactive are those of the source. The calls are words filed in the database; no cut-off is given here.

What was measured:
[1] = Induction of H2S release in 10% PBS:MeCN solution at 0.5 mM incubated at 22 degC in dark condition measured at 48 hrs by 2, 6-dansyl azide probed-based fluorescence assay relative to control; format: physicochemical; conditions: buffer, 500 µM
[2] = Induction of H2S release in 10% PBS:MeCN solution at 0.5 mM incubated at 37 degC in dark condition measured at 48 hrs by 1 mM 2, 6-dansyl azide probed-based fluorescence assay relative to control; format: physicochemical; conditions: buffer, 500 µM
[3] = Induction of H2S release in 10% PBS:MeCN solution assessed as ratio of H2S level at 37 degC to H2S level at 22 degC at 0.5 mM incubated in dark condition measured at 96 hrs by 2, 6-dansyl azide probed-based fluorescence assay; format: physicochemical; conditions: buffer, 500 µM
[4] = Induction of H2S release in 10% PBS:MeCN solution at 0.5 mM incubated at 22 degC in dark condition measured at 48 hrs by 2, 6-dansyl azide probed-based fluorescence assay relative to 12 uM of GYY4137; format: physicochemical; conditions: buffer, 500 µM
[5] = Induction of H2S release in 10% PBS:MeCN solution at 0.5 mM incubated at 37 degC in dark condition measured at 48 hrs by 2, 6-dansyl azide probed-based fluorescence assay relative to 6.9 uM of GYY4137; format: physicochemical; conditions: buffer, 500 µM
MCF7 [6] = assay: Cytotoxicity against human MCF7 cells assessed as inhibition of cell proliferation after 4 days by crystal violet assay; format: functional, cell-based; conditions: MCF7, 96 h
SK-OV-3 = assay: Cytotoxicity against human SKOV3 cells assessed as inhibition of cell proliferation after 4 days by crystal violet assay; format: functional, cell-based; conditions: SK-OV-3, 96 h
[7] = Toxicity in human WI38 cells assessed as inhibition of cell proliferation after 4 days by crystal violet assay
[8] = Therapeutic index, ratio of IC50 for human WI38 cells to IC50 for human MCF7 cells; conditions: WI38 cells and MCF7 cells
[9] = Therapeutic index, ratio of IC50 for human WI38 cells to IC50 for human SKOV3 cells; conditions: WI38 cells and SKOV3 cells
[10] = Therapeutic index, ratio of IC50 for human WI38 cells to IC50 for human MBA-MD-231 cells; conditions: WI38 cells and MBA-MD-231 cells
[11] = Therapeutic index, ratio of IC50 for human WI38 cells to IC50 for human PC3 cells; conditions: WI38 cells and PC3 cells
[12] = Toxicity in transforming growth factor alpha transgenic mouse hepatocytes assessed as inhibition of cell proliferation after 24 hrs by CellTiter-Glo cell viability assay; format: cell-based, Hepatocyte
[13] = Toxicity in human AC10 cells assessed as inhibition of cell proliferation at 100 uM after 24 hrs by CellTiter-Glo cell viability assay relative to control; format: cell-based
[14] = Induction of H2S release in 10% PBS:MeCN solution at 5 mM incubated at 22 degC in dark condition measured at 96 hrs by 2, 6-dansyl azide probed-based fluorescence assay relative to control; conditions: buffer, 5000 µM
[15] = Induction of H2S release in 10% PBS:MeCN solution at 5 mM incubated at 37 degC in dark condition measured at 96 hrs by 0.2 mM 2, 6-dansyl azide probed-based fluorescence assay relative to control; format: physicochemical; conditions: buffer, 5000 µM
[16] = Induction of H2S release in 10% PBS:MeCN solution assessed as ratio of H2S level at 37 degC to H2S level at 22 degC at 5 mM incubated in dark condition measured at 96 hrs by 2, 6-dansyl azide probed-based fluorescence assay; conditions: buffer, 5000 µM
[17] = Induction of H2S release in 10% PBS:MeCN solution at 5 mM incubated at 22 degC in dark condition measured at 96 hrs by 2, 6-dansyl azide probed-based fluorescence assay relative to GYY4137; format: physicochemical; conditions: buffer, 5000 µM
[18] = Induction of H2S release in 10% PBS:MeCN solution at 5 mM incubated at 37 degC in dark condition measured at 96 hrs by 2, 6-dansyl azide probed-based fluorescence assay relative to GYY4137; format: physicochemical; conditions: buffer, 5000 µM
MCF7 [19] = assay: cells; format: functional, cell-based; conditions: Homo sapiens, MCF7, 72 h
Description: Cytotoxicity against human MCF7 cells assessed as inhibition of cell proliferation after 72 hrs by MTT assay

MDA-MB-231 = assay: cells; format: functional, cell-based; conditions: Homo sapiens, MDA-MB-231, 72 h
Description: Cytotoxicity against human MDA-MB-231 cells assessed as inhibition of cell proliferation after 72 hrs by MTS assay

PC-3 = assay: cells; format: functional, cell-based; conditions: Homo sapiens, PC-3, 72 h
Description: Cytotoxicity against human PC3 cells assessed as inhibition of cell proliferation after 72 hrs by MTT assay

[20] = Effective permeability of the compound at 500 uM after 6 hrs by PAMPA; conditions: PAMPA
[21] = Effective permeability of the compound at 500 uM after 16 hrs by PAMPA
physchem [22] = conditions: DMSO, pH 7.4
Description: Kinetic solubility of the compound in DMSO at pH 7.4 measured at 3 hrs by multiscreen filter paper-based UV absorbance analysis

physchem [23] = conditions: DMSO, pH 7.4; remark: listed apart in the source
Description: Kinetic solubility of the compound in DMSO at pH 7.4 measured at 24 hrs by multiscreen filter paper-based UV absorbance analysis

[24] = Toxicity in human AC10 cells assessed as inhibition of cell proliferation after 24 hrs by CellTiter-Glo cell viability assay; format: cell-based
[25] = Induction of H2S release in 10% PBS:MeCN solution at 1 mM incubated at 22 degC in dark condition measured at 72 hrs by 2, 6-dansyl azide probed-based fluorescence assay; format: physicochemical; conditions: buffer, 1000 µM
[26] = Induction of H2S release in 10% PBS:MeCN solution at 100 uM incubated at 37 degC in dark condition measured at 72 hrs by 2, 6-dansyl azide probed-based fluorescence assay; format: physicochemical; conditions: buffer
MCF7 [27] = assay: Antitumor activity against human MCF7 tumor spheroids assessed as tumor growth inhibition at 100 uM after 14 days by inverted microscopic analysis relative to control; format: functional; conditions: MCF7, 336 h, read-out: TGI
MCF7 [28] = assay: Antitumor activity against human MCF7 tumor spheroids assessed as tumor growth inhibition at 200 uM after 14 days by inverted microscopic analysis relative to control; format: functional; conditions: MCF7, 336 h, read-out: TGI
MCF7 [29] = assay: Antitumor activity against human MCF7 tumor spheroids assessed as tumor growth inhibition at 400 uM after 14 days by inverted microscopic analysis relative to control; format: functional; conditions: MCF7, 336 h, read-out: TGI
MCF7 [30] = assay: Antitumor activity against human MCF7 tumor spheroids assessed as tumor growth inhibition at 800 uM after 14 days by inverted microscopic analysis relative to control; format: functional; conditions: MCF7, 336 h, read-out: TGI
[31] = Induction of H2S release in 10% PBS:MeCN solution at 5 mM incubated at 37 degC in dark condition measured at 96 hrs by 1 mM 2, 6-dansyl azide probed-based fluorescence assay relative to control; conditions: buffer, 5000 µM
Salmonella typhi [32] = assay: Genotoxicity in Salmonella […] TA98 at 10 to 100 ug/plate after 48 hrs by Ames test in presence of S9 fraction; format: toxicity, organism-based; conditions: salmonella enterica subsp. enterica serovar […], s9, 48 h
Salmonella typhi [33] = assay: Genotoxicity in Salmonella […] TA100 at 10 to 100 ug/plate after 48 hrs by Ames test in presence of S9 fraction; format: toxicity, organism-based; conditions: salmonella enterica subsp. enterica serovar […], s9, 48 h
Salmonella typhi [34] = assay: Genotoxicity in Salmonella […] TA98 at 10 to 100 ug/plate after 48 hrs by Ames test in absence of S9 fraction; format: toxicity, organism-based; conditions: salmonella enterica subsp. enterica serovar […]
Salmonella typhi [35] = assay: Genotoxicity in Salmonella […] TA100 at 10 to 100 ug/plate after 48 hrs by Ames test in absence of S9 fraction; format: toxicity, organism-based; conditions: salmonella enterica subsp. enterica serovar […]
MCF7 [36] = assay: Reduction of intracellular pH in human MCF7 cells at 50 uM after 48 hrs by BCECF-AM staining-based confocal microscopic analysis; format: functional
MCF7 [37] = assay: Induction of H2S release in human MCF7 cells at 200 uM measured at 6 hrs by probe 21-based fluorescence assay; format: functional
[38] = Induction of H2S release in aqueous acetonitrile solution at 200 uM measured over 4 days by probe 21-based fluorescence assay; conditions: buffer, 96 h
MCF7 [39] = assay: Induction of H2S release in human MCF7 cells at 400 uM measured at 6 hrs by probe 21-based fluorescence assay; format: functional
MCF7 [40] = assay: Induction of H2S release in human MCF7 cells at 200 uM measured at 24 hrs by probe 21-based fluorescence assay; format: functional
MCF7 [41] = assay: Induction of H2S release in human MCF7 cells at 400 uM measured at 24 hrs by probe 21-based fluorescence assay; format: functional
[42] = Induction of H2S release in aqueous acetonitrile solution at 400 uM measured over 4 days by probe 21-based fluorescence assay; conditions: buffer, 96 h
MCF7 [43] = assay: Induction of H2S release in human MCF7 cells at 400 uM after 5 hrs by probe 21-based confocal fluorescence microscopic analysis; format: functional, cell-based

SMILES	IC50 (MCF7 [6]) [µM]	IC50 (SK-OV-3) [µM]	IC50 at 4 days [7] [µM]	selectivity ratio [8]	selectivity ratio [9]	selectivity ratio [10]	selectivity ratio [11]	IC50 at 24 h [12] [µM]	inhibition at 24 h, 100 µM [13] [%]	%max [14] [%]	Ratio [16]	fold change (FC) [17]	fold change (FC) [18]	IC50 (MCF7 [19]) [µM]	IC50 (MDA-MB-231) [µM]	IC50 (PC-3) [µM]	Papp at 6 h, 500 µM [20] [×10⁻⁶ cm/s]	Papp at 16 h, 500 µM [21] [×10⁻⁶ cm/s]	solubility kinetic at 3 h (physchem [22]) [µg/mL]	solubility kinetic at 24 h (physchem [23]) [µg/mL]	other results
C1CSCCN1.S=P(S)(N1CCSCC1)N1CCSCC1	20.4	15.8	30.4	1.5	1.5	1.5	1.5	120	35.6												%max [1]: 48.5%; %max [2]: 62.6%; Ratio [3]: 1.3; fold change (FC) [4]: 40; fold change (FC) [5]: 90.7
C1COCCN1.CC(C)OP(=S)(S)c1ccc(Oc2ccccc2)cc1 (centres undefined)	51.4	50.2	72.8	1.4	1.4	1.4	1.4		28.6	0.06	2.6	< 0.1	< 0.1	178	94.8	50.8	0.0066	0.0051	> 400	> 400	%max [15]: 0.15%
S=P1(c2ccccc2)Nc2ccccc2O1 (centres undefined)	5.7	6.12	> 50		8.2			26.3													IC50 at 24 h [24]: 98 µM; Activity [25]: 150 µM; Activity [26]: 77.6 µM; inhibition of growth at 100 µM (MCF7 [27]): 69.7%; inhibition of growth at 200 µM (MCF7 [28]): 75.3%; inhibition of growth at 400 µM (MCF7 [29]): 83.7%; inhibition of growth at 800 µM (MCF7 [30]): 91%
NCc1ccccc1.S=P(S)(NCc1ccccc1)c1ccc(Oc2ccccc2)cc1 (centres undefined)	36.3	47	104	1.5	1.5	1.5	1.5	23.5		1.28	2.2	0.9	0.5	67.6	55.4	45.6	0.19	0.97	200	180	%max [31]: 2.81%; IC50 at 24 h [24]: 62.6 µM; Activity (Salmonella typhi [32]): Non-toxic; Activity (Salmonella typhi [33]): Non-toxic; Activity (Salmonella typhi [34]): Non-toxic; Activity (Salmonella typhi [35]): Non-toxic; pH (MCF7 [36]): 6.75; Activity (MCF7 [37]): 41.5 µM; Activity [38]: 9.03 µM; Activity (MCF7 [39]): 48.2 µM; Activity (MCF7 [40]): 93.4 µM; Activity (MCF7 [41]): 74.6 µM; Activity [42]: 17.19 µM; Activity (MCF7 [43]): Active
